The target in assay [1] is Type 1 fimbrin D-mannose specific adhesin (Escherichia coli K-12, UniProt P08191). Kind of assay: Antagonist activity at recombinant 6His-tagged thrombin cleavage site of FimH Lectin domain expressed in Escherichia coli HM125 assessed as dissociation constant incubated for 24 hrs in presence of FITC-labeled tracer by competitive fluorescence polarization assay. For orientation: In fluorescence polarisation assays a small probe gives low polarisation when free and higher when bound to something large.

Assay [2] can be described thus: Antagonist activity at recombinant 6His-tagged thrombin cleavage site of FimH Lectin domain R98A mutant expressed in Escherichia coli HM125 assessed as dissociation constant measured after 24 hrs by fluorescence polarization assay.

Type 1 fimbrin D-mannose specific adhesin, sequence (P08191 whole entry, the tested form may be a part): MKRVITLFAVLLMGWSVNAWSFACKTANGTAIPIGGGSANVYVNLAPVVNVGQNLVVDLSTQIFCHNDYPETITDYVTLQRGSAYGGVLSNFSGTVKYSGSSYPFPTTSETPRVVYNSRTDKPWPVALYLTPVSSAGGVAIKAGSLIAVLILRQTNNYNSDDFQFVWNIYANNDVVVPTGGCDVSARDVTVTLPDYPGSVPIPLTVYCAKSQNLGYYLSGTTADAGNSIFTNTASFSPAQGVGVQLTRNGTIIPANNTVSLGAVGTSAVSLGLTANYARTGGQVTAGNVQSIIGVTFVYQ

Regarding `CCCCCCCO[C@H]1O[C@H](CO)[C@@H](O)[C@H](O)[C@@H]1O`, the figures for the Kd in assay [1] and in assay [2] were 36.8 nM and 35.6 nM, respectively.

Take `OC[C@H]1O[C@H](n2cc(-c3ccccc3)nn2)[C@@H](O)[C@@H](O)[C@@H]1O`: the Kd turned out to be 336 nM in assay [1] and 297 nM in assay [2]. Take `COC(=O)COc1ccc(-c2cn([C@H]3O[C@H](CO)[C@@H](O)[C@H](O)[C@@H]3O)nn2)cc1`: the Kd in assay [1] amounted to 66.2 nM; in assay [2] it was 7.22 nM. The like results for `COC(=O)COc1cccc(-c2cn([C@H]3O[C@H](CO)[C@@H](O)[C@H](O)[C@@H]3O)nn2)c1` were, in that order, 175 nM and 22.3 nM. Turning to `CCOC(=O)CCCCCCOc1cccc(-c2cn([C@H]3O[C@H](CO)[C@@H](O)[C@H](O)[C@@H]3O)nn2)c1`, the equilibrium dissociation constant (Kd) came to 69.1 nM in assay [1] and 13.4 nM in assay [2]. On the same counts, the results for `O=C(O)COc1ccc(-c2cn([C@H]3O[C@H](CO)[C@@H](O)[C@H](O)[C@@H]3O)nn2)cc1` are 171 nM and 14.6 nM.

For `CCOC(=O)CCCCCOc1cccc(-c2cn([C@H]3O[C@H](CO)[C@@H](O)[C@H](O)[C@@H]3O)nn2)c1`, the Kd in assay [1] was determined as 48.8 nM; in assay [2] it was 11.5 nM.

As to `CCOC(=O)CCCCCCCOc1ccc(-c2cn([C@H]3O[C@H](CO)[C@@H](O)[C@H](O)[C@@H]3O)nn2)cc1`, the Kd in assay [1] turned out to be 42.8 nM; in assay [2], 8.8 nM. Regarding `CCOC(=O)CCCCOc1ccc(-c2cn([C@H]3O[C@H](CO)[C@@H](O)[C@H](O)[C@@H]3O)nn2)cc1`, the dissociation constant (Kd) in assay [1] stood at 50.6 nM; in assay [2], 10.1 nM. With `O=C(O)CCCCCCOc1ccc(-c2cn([C@H]3O[C@H](CO)[C@@H](O)[C@H](O)[C@@H]3O)nn2)cc1`, the figures for the Kd in assay [1] and in assay [2] were 37.8 nM and 7.6 nM, respectively. As to `O=C(O)COc1cccc(-c2cn([C@H]3O[C@H](CO)[C@@H](O)[C@H](O)[C@@H]3O)nn2)c1`, the Kd amounted to 356 nM in assay [1] and 29 nM in assay [2]. On to `O=C(O)CCCOc1cccc(-c2cn([C@H]3O[C@H](CO)[C@@H](O)[C@H](O)[C@@H]3O)nn2)c1`, for which the values for the Kd in assay [1] and in assay [2] were 178 nM and 20.7 nM, respectively. The like results for `CCOC(=O)CCCCCCOc1ccc(-c2cn([C@H]3O[C@H](CO)[C@@H](O)[C@H](O)[C@@H]3O)nn2)cc1` were, in that order, 7.6 nM and 1.3 nM. Consider `O=C(O)CCCOc1ccc(-c2cn([C@H]3O[C@H](CO)[C@@H](O)[C@H](O)[C@@H]3O)nn2)cc1`, for which the Kd was 63.3 nM in assay [1] and 9.45 nM in assay [2]. Take `O=C(O)CCCCCOc1cccc(-c2cn([C@H]3O[C@H](CO)[C@@H](O)[C@H](O)[C@@H]3O)nn2)c1`: the Kd came out at 56 nM in assay [1] and 17.3 nM in assay [2].

In the case of `O=C(O)CCCCCOc1ccc(-c2cn([C@H]3O[C@H](CO)[C@@H](O)[C@H](O)[C@@H]3O)nn2)cc1`, the values for the Kd in assay [1] and in assay [2] were 36.7 nM and 7.5 nM, respectively. As for `O=C(O)CCCCOc1ccc(-c2cn([C@H]3O[C@H](CO)[C@@H](O)[C@H](O)[C@@H]3O)nn2)cc1`, the figures for the Kd in assay [1] and in assay [2] were 48.5 nM and 11.2 nM, respectively. In the case of `CCOC(=O)CCCOc1ccc(-c2cn([C@H]3O[C@H](CO)[C@@H](O)[C@H](O)[C@@H]3O)nn2)cc1`, the Kd came to 60.7 nM in assay [1] and 8.07 nM in assay [2]. Regarding `CCOC(=O)CCCCCOc1ccc(-c2cn([C@H]3O[C@H](CO)[C@@H](O)[C@H](O)[C@@H]3O)nn2)cc1`, the values for the Kd in assay [1] and in assay [2] were 32.6 nM and 6.6 nM, respectively.

On to `O=C(O)CCCCCCCOc1ccc(-c2cn([C@H]3O[C@H](CO)[C@@H](O)[C@H](O)[C@@H]3O)nn2)cc1`, for which the Kd in assay [1] is 44.7 nM; in assay [2], 10.1 nM. Take `CCOC(=O)CCCCCCCOc1cccc(-c2cn([C@H]3O[C@H](CO)[C@@H](O)[C@H](O)[C@@H]3O)nn2)c1`: the Kd in assay [1] amounted to 107 nM; in assay [2] it was 25 nM. As to `COC(=O)CCCOc1cccc(-c2cn([C@H]3O[C@H](CO)[C@@H](O)[C@H](O)[C@@H]3O)nn2)c1`, the Kd is 143 nM in assay [1] and 16 nM in assay [2]. On to `CCOC(=O)CCCCOc1cccc(-c2cn([C@H]3O[C@H](CO)[C@@H](O)[C@H](O)[C@@H]3O)nn2)c1`, for which the Kd was determined as 65 nM in assay [1] and 16.2 nM in assay [2]. Regarding `O=C(O)CCCCCCCOc1cccc(-c2cn([C@H]3O[C@H](CO)[C@@H](O)[C@H](O)[C@@H]3O)nn2)c1`, in assay [1], the Kd is > 1000 nM. As for `O=C(O)CCCCCCOc1cccc(-c2cn([C@H]3O[C@H](CO)[C@@H](O)[C@H](O)[C@@H]3O)nn2)c1`, the Kd in assay [1] is 533 nM; in assay [2], 63.2 nM. The like results for `O=C(O)CCCCOc1cccc(-c2cn([C@H]3O[C@H](CO)[C@@H](O)[C@H](O)[C@@H]3O)nn2)c1` were, in that order, 78.5 nM and 16.3 nM.

Broadly, the Kd is the concentration at which binding is half-saturated.

(Values after ChEMBL document CHEMBL4819007, “Does targeting Arg98 of FimH lead to high affinity antagonists?” (Eur J Med Chem, 2021).)
